Measured values taken from ChEMBL document CHEMBL5696442, “Discovery of type II inhibitors of TGFβ-activated kinase 1 (TAK1) and mitogen-activated protein kinase kinase kinase kinase 2 (MAP4K2)” (J Med Chem, 2015).

Assays:
[1] = target: T1, Mitogen-activated protein kinase 13 (Homo sapiens) (UniProt O15264); experiment: Inhibition of p38delta Lys2 labeling site in human Huh-7 cell lysate at 1 uM by KiNativ Profiling analysis relative to control; assay type: subcellular
T1 sequence (whole entry): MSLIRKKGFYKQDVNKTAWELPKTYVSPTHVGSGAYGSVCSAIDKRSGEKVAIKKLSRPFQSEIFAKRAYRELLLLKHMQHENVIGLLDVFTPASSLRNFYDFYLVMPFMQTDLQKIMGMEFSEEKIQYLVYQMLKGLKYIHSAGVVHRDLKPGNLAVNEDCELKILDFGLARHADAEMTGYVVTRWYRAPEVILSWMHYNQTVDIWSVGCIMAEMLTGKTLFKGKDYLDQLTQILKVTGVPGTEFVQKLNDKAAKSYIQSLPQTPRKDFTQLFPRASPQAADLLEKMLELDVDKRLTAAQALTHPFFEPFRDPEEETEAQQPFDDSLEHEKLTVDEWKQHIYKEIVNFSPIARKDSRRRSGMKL

[2] = target: Serine/threonine-protein kinase Nek6 (Homo sapiens) (UniProt Q9HC98); experiment: Inhibition of NEK6 Lys2 labeling site in human A-375 cells at 0.5 uM by KiNativ Profiling analysis relative to control; assay type: cell-based
Chain of Serine/threonine-protein kinase Nek6 (Homo sapiens) (Q9HC98 whole entry): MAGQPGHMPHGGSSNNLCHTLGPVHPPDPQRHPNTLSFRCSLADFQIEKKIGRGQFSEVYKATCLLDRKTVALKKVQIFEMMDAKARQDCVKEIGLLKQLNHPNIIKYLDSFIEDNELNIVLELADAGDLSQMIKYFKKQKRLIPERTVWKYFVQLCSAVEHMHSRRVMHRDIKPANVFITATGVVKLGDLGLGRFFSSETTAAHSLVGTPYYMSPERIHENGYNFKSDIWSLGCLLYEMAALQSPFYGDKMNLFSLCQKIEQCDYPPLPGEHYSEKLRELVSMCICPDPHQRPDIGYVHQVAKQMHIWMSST

[3] = Inhibition of p70S6K ATP Loop labeling site harbouring DLKPENIMLNHQGHVK in human A-375 cells at 5 uM by KiNativ Profiling analysis relative to control; conditions: condition cancer
[4] = target: Mitogen-activated protein kinase 10 (Homo sapiens, UniProt P53779); experiment: Inhibition of JNK3 Lys2 labeling site in human A-375 cells at 0.05 uM by KiNativ Profiling analysis relative to control; assay type: cell-based
Chain of Mitogen-activated protein kinase 10 (P53779 whole entry): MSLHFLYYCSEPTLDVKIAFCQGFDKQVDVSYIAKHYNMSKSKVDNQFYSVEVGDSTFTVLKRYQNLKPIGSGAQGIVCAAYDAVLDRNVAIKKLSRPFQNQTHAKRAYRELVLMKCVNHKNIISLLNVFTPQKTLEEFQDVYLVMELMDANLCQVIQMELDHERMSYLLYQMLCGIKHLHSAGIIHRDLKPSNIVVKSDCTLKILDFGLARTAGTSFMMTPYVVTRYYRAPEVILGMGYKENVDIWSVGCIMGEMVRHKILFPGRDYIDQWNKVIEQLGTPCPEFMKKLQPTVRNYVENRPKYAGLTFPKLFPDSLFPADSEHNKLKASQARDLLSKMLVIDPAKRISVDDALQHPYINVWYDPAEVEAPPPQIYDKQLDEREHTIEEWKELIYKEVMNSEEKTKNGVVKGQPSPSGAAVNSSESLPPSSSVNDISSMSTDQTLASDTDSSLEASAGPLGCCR

Ephrin type-A receptor 2 = Ephrin type-A receptor 2 (Homo sapiens, UniProt P29317); experiment: Inhibition of EphA2 (unknown origin) ACT labeling site by KiNativ Profiling analysis
Chain of Ephrin type-A receptor 2 (P29317 whole entry): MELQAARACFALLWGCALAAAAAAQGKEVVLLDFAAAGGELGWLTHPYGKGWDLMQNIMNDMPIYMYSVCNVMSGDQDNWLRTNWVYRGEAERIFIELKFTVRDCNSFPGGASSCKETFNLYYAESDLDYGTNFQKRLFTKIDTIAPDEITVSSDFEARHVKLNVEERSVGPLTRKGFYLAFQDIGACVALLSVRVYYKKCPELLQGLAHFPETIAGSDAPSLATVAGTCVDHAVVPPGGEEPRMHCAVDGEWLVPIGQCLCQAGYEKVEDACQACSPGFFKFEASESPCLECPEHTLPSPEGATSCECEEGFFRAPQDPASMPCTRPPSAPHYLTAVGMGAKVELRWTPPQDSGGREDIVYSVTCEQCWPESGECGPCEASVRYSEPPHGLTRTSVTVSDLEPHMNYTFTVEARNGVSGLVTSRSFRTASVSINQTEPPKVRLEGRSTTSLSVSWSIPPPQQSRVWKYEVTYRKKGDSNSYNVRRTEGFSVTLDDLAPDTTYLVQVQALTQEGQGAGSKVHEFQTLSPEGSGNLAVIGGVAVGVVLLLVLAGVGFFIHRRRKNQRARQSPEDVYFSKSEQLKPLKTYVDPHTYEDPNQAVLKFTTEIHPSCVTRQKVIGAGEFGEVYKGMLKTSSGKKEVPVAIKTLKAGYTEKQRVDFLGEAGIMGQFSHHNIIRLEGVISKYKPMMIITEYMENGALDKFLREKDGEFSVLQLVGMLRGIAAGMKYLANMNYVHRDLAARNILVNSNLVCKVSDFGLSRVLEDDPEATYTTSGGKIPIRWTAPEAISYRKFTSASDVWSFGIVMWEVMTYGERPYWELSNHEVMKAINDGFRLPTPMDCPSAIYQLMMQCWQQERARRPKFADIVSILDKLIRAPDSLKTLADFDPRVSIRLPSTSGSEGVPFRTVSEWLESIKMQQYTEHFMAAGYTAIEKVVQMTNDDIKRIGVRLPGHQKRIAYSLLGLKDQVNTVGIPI

[5] = target: Serine/threonine-protein kinase 25 (Homo sapiens) (UniProt O00506); experiment: Inhibition of YSK1 ACT labeling site in human A-375 cells at 0.05 uM by KiNativ Profiling analysis relative to control; assay type: cell-based
Chain of Serine/threonine-protein kinase 25 (Homo sapiens) (O00506 whole entry, looked up): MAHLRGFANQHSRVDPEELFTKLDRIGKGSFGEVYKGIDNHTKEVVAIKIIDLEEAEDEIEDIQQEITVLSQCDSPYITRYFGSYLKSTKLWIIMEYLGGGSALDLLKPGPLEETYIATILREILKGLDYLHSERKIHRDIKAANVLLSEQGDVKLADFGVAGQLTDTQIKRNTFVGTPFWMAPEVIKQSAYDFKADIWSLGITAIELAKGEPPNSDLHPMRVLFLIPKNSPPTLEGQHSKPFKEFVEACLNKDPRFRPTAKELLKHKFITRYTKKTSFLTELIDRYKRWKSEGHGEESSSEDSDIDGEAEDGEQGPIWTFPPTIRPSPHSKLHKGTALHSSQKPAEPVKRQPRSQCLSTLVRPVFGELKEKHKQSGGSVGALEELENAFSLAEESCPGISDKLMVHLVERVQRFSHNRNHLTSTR

[6] = target: T2, Serine/threonine-protein kinase 3 (Homo sapiens) (UniProt Q13188); experiment: Inhibition of MST2 Lys2 labeling site harbouring DIKAGNILLNTEGHAK in human A-375 cells at 5 uM by KiNativ Profiling analysis relative to control; assay type: cell-based
T2 sequence (whole entry): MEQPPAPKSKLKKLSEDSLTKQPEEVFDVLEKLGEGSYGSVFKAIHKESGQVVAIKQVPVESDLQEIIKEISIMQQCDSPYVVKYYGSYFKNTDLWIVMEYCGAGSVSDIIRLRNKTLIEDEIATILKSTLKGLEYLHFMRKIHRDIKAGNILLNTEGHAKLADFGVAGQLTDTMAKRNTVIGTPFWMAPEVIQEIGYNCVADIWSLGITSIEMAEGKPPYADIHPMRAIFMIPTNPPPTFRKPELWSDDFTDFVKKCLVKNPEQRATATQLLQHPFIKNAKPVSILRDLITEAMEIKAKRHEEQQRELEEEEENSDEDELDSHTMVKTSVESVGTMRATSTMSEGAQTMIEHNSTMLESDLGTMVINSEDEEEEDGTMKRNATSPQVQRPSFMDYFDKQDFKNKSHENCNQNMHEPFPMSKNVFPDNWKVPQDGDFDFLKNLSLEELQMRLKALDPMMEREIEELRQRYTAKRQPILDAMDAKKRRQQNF

[7] = target: Serine/threonine-protein kinase 25 (Homo sapiens) (UniProt O00506); experiment: Inhibition of YSK1 Lys2 labeling site in human A-375 cells at 5 uM by KiNativ Profiling analysis relative to control; assay type: cell-based
[8] = target: Serine/threonine-protein kinase 38-like (Homo sapiens) (UniProt Q9Y2H1); experiment: Inhibition of NDR2 Lys1 labeling site harbouring DTGHIYAMKILR in human A-375 cells at 0.05 uM by KiNativ Profiling analysis relative to control; assay type: cell-based
Chain of Serine/threonine-protein kinase 38-like (Homo sapiens) (Q9Y2H1 2-464 limits assumed): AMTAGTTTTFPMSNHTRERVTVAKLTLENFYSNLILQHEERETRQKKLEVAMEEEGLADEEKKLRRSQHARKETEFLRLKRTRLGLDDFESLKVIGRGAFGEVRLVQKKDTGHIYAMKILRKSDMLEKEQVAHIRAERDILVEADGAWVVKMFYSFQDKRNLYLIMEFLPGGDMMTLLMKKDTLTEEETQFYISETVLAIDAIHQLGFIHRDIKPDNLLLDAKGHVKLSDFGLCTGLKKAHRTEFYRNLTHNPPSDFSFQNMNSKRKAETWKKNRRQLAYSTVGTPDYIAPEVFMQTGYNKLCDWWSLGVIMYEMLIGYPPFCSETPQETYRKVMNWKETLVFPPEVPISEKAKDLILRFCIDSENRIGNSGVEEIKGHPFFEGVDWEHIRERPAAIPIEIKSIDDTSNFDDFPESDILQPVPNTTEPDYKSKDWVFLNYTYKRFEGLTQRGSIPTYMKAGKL

[9] = target: T3, Serine/threonine-protein kinase Nek9 (Homo sapiens) (UniProt Q8TD19); experiment: Inhibition of NEK9 ACT labeling site in human A-375 cells at 0.05 uM by KiNativ Profiling analysis relative to control; assay type: cell-based
T3 sequence (whole entry): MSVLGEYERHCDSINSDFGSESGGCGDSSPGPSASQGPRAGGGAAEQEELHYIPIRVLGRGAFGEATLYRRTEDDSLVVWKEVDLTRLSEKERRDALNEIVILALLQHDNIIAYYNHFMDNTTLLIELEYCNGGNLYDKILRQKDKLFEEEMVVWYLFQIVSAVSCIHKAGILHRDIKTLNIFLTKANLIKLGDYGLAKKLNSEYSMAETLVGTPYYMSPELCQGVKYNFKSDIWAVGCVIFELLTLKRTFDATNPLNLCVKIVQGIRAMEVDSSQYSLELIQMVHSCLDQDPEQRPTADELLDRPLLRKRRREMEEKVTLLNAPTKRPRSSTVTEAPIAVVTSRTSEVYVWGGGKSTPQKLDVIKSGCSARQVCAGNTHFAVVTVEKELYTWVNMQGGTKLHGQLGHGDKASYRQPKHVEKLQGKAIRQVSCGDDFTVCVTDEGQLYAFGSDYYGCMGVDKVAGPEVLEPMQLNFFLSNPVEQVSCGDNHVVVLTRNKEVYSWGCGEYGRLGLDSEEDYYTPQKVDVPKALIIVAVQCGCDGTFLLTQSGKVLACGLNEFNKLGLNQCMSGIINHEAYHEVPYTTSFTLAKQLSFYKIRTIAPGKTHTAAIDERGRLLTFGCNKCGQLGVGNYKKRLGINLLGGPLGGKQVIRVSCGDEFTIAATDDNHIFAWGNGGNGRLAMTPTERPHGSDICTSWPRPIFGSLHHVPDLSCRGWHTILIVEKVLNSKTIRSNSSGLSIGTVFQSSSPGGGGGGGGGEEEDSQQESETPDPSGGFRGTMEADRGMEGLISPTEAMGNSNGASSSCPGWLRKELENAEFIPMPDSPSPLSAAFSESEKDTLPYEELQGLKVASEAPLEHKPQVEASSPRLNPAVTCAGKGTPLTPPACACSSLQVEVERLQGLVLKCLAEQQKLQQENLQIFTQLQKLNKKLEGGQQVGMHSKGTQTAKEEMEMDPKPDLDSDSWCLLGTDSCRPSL

[10] = target: Tyrosine-protein kinase Yes (Homo sapiens) (UniProt P07947); experiment: Inhibition of YES ACT labeling site in human A-375 cells at 0.5 uM by KiNativ Profiling analysis relative to control; assay type: cell-based
Chain of Tyrosine-protein kinase Yes (Homo sapiens) (P07947 2-543 limits assumed): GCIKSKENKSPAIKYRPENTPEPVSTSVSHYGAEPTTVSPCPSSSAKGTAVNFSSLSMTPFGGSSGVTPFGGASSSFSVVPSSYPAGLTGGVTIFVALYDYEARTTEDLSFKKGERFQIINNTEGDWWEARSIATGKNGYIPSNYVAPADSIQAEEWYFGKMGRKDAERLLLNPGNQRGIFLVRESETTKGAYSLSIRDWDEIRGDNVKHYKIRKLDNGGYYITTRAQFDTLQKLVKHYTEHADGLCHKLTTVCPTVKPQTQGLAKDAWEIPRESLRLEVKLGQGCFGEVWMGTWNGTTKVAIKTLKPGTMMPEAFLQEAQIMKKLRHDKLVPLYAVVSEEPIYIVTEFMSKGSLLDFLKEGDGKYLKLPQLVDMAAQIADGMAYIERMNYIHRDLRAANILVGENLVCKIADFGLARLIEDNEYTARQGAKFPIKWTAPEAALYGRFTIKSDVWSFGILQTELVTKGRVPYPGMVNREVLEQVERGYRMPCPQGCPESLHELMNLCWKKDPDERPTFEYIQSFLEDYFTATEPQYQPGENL

[11] = target: Phosphatidylinositol 4-kinase beta (Homo sapiens) (UniProt Q9UBF8); experiment: Inhibition of PI4KB ATP labeling site harbouring VPHTQAVVLNSKDK in human A-375 cells at 5 uM by KiNativ Profiling analysis relative to control; assay type: cell-based
Chain of Phosphatidylinositol 4-kinase beta (Homo sapiens) (Q9UBF8 2-816 limits assumed): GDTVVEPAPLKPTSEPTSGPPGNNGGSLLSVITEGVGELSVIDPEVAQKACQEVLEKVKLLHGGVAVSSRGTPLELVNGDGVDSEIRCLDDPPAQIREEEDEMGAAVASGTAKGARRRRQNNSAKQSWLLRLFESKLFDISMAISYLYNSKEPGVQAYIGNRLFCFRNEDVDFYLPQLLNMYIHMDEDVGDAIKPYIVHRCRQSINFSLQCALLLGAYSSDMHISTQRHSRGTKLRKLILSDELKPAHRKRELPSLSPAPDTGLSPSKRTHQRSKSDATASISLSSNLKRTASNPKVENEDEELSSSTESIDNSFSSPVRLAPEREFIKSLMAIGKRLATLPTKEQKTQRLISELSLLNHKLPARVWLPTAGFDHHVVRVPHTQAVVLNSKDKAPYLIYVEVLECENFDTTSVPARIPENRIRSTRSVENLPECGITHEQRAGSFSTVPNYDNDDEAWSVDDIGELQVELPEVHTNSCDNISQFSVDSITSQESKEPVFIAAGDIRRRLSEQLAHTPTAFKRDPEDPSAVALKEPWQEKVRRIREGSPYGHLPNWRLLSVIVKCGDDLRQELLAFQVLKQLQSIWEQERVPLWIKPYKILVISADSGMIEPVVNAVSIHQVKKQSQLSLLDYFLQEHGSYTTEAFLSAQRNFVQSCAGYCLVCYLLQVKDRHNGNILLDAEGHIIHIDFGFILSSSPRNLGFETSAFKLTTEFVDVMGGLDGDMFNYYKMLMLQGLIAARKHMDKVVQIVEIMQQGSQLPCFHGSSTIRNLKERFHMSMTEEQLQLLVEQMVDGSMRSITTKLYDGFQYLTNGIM

[12] = target: Serine/threonine-protein kinase mTOR (Homo sapiens) (UniProt P42345); experiment: Inhibition of FRAP ATP labeling site in human A-375 cells at 5 uM by KiNativ Profiling analysis relative to control; assay type: cell-based

SMILES	inhibition [1] [%]	inhibition [2] [%]	inhibition at 5 µM [3] [%]	inhibition [4] [%]	IC50 (Ephrin type-A receptor 2) [µM]	inhibition [5] [%]	inhibition [6] [%]	inhibition [7] [%]	inhibition [8] [%]	inhibition [9] [%]	inhibition [10] [%]	inhibition [11] [%]	inhibition [12] [%]
CNc1cc(Oc2cc(C(=O)Nc3cc(-n4cnc(C)c4)cc(C(F)(F)F)c3)ccc2C)ncn1	5.5												
CCN1CCN(Cc2ccc(NC(=O)c3ccc(C)c(Oc4ccnc5[nH]ccc45)c3)cc2C(F)(F)F)CC1		7.8	14.7	50.3	0.773	22.4	3.5	15.4	5.4	8.1	36.5	-5.8	-0.1
CCN1CCN(Cc2ccc(NC(=O)c3ccc(C)c(/C=C/c4cnc5[nH]ccc5c4OC)c3)cc2C(F)(F)F)CC1		10.7	-8	23.9	0.077	13.5	14.1	20.9	-0.9	-4.6	72.6	-6.8	-9.4
CNc1cc(Oc2cc(C(=O)Nc3cc(N4CCN(C)CC4)cc(C(F)(F)F)c3)ccc2C)ncn1	12.8												
